Results published in patent publication US11377442B2, “Small molecule agonists and antagonists of NR2F6 activity” (ZANDER THERAPEUTICS, INC., priority 2016, dated 2022).
“And” between values parts separate entries of the source, which are not always exact repeats. Identical values can stand only once.

Legend:
Human PBMC = assay: Cytokines release by hPBMC (PMA+ionomycin activated); format: cell-based
Protocol: FIGS. 18A and 18B show charts of cytokines release by hPBMC and cytotox for Compound 18. For cytokines release and cytotox on hPBMCs compound was tested at 1.25, 2.5, 5, 10, 25 and 50 uM in duplicates. For cytotox on HEK293, HEK293 pGL4 and HEK293 NR2F6 (full length) compound was tested from 50 uM with dilution step 3.16 in duplicates. Human PBMC were activated by 10 ng/mL PMA+500 ng/mL ionomycin. Data were normalized to controls with (100%) w/o compounds.
FIGS. 16A and 16B show results of cytokins release by hPBMC and cytotox for Compound C11. For cytokines release and cytotox on hPBMCs, the Compound was tested at 1.25, 2.5, 5, 10, 25 and 50 uM in duplicates. For cytotox on HEK293, HEK293 pGL4 and HEK293 NR2F6 (full length) cmpd was tested from 50 uM with dilution step 3.16 in duplicates.
The human PBMC were activated by 10 ng/mL PMA+500 ng/mL ionomycin. Data were normalized to controls with (100%) w/o compounds.
For cytokines release and cytotox on hPBMCs each compound was tested at 1.25, 2.5, 5, 10, 25 and 50 uM in duplicates. Human PBMC were activated by 10 ng/mL PMA+500 ng/mL ionomycin. Data were normalized to controls with (100%) w/o cmpds.
FIGS. 61A-61E show further results of cytokine release by hPBMC for Compound D136. Each compound was tested at 1.25, 2.5, 5, 10, 25 and 50 uM in duplicates.
Human PBMC were activated by 10 ng/mL PMA+500 ng/mL ionomycin. Data were normalized to controls with (100%) w/o cmpds.

[1] = Microsomal stability in human liver microsomes; format: in vitro ADME
[2] = Microsomal stability in mouse liver microsomes; format: in vitro ADME
hCyt P450 [3] = biological target: hCyt P450 (Homo sapiens, UniProt P08684); assay: CYP inhibition; format: in vitro ADME
hCyt P450 [4] = biological target: T1, hCyt P450 (Homo sapiens, UniProt P10632); assay: CYP inhibition; format: in vitro ADME; conditions: CYP 2C8-Amodiaquine
T1 sequence (P10632 1-490): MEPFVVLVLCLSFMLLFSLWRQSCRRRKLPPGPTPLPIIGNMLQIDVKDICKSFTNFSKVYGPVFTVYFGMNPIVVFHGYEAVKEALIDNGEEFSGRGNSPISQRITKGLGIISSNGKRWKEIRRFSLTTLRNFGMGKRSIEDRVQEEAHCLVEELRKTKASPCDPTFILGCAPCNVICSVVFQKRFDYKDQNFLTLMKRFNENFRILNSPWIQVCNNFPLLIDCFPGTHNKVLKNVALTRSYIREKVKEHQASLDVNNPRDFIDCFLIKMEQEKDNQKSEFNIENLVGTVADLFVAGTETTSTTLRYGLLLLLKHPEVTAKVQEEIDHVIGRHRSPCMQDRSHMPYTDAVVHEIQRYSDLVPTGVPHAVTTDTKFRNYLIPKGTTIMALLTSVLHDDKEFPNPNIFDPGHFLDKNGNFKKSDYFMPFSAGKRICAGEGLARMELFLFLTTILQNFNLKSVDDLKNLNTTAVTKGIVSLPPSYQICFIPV

hCyt P450 [5] = biological target: hCyt P450 (Homo sapiens, UniProt P10635); assay: CYP inhibition; format: in vitro ADME; conditions: CYP 2D6-Dextromethorphan
hCyt P450 [6] = biological target: hCyt P450 (Homo sapiens, UniProt P33261); assay: CYP inhibition; format: in vitro ADME; conditions: CYP 2C19-Mephenytoin
PPB = format: in vitro ADME; conditions: for recovery: plasma
PK in rat plasma = format: in vivo; conditions: for Fabs, %: PO 7.53 mg/kg vs IV 1.13 mg/kg
[7] = Caco-2 permeability assay; format: in vitro ADME; conditions: human
Protocol: (§1) A Caco-2 permeability assay was performed on Compound D136.

Caco-2 = Caco-2 permeability assay; format: in vitro ADME
Protocol: as §1

P-gp (MDR1) = biological target: T2, P-gp (MDR1) (Homo sapiens, UniProt P08183); assay: Caco-2 asymmetry, P-gp substrate; format: in vitro ADME
T2 construct: endogenous in cells; host or cells: Caco-2
Protocol: as §1

[8] = Table 36, PO plasma, 7.53 mg/kg
[9] = Table 38, IV plasma, 1.13 mg/kg
[10] = rat, Table 36, PO plasma, 7.53 mg/kg
[11] = rat, Table 38, IV plasma, 1.13 mg/kg

Sequence of hCyt P450 (Homo sapiens, UniProt P08684) (P08684 whole entry): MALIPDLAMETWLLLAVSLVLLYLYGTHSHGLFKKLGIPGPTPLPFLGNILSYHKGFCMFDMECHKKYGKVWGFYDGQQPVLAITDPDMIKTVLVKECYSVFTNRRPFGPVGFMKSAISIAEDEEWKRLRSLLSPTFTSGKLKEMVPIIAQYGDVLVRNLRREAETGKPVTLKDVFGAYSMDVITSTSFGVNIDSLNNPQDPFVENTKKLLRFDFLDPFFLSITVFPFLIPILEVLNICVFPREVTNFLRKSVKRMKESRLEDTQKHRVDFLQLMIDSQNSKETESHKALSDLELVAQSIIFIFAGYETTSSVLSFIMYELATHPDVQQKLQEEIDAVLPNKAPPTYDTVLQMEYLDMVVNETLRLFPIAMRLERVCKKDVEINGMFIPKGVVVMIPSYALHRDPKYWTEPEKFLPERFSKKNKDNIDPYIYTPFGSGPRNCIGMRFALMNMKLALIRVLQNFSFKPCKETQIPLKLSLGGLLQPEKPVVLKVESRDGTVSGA
Sequence of hCyt P450 (Homo sapiens, UniProt P10635) (P10635 whole entry): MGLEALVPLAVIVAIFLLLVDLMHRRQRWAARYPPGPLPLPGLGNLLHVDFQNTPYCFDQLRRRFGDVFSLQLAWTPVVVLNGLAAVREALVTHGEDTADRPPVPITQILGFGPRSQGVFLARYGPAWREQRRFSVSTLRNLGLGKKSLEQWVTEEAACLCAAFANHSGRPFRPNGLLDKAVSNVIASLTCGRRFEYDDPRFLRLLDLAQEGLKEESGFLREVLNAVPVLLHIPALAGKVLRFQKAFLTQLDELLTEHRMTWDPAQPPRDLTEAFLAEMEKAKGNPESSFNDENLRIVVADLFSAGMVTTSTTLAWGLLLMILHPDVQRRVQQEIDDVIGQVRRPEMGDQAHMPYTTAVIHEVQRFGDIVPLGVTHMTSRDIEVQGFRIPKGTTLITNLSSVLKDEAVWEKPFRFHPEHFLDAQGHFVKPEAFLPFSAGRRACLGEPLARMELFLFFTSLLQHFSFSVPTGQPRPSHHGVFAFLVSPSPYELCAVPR
T2 sequence (P08183 whole entry): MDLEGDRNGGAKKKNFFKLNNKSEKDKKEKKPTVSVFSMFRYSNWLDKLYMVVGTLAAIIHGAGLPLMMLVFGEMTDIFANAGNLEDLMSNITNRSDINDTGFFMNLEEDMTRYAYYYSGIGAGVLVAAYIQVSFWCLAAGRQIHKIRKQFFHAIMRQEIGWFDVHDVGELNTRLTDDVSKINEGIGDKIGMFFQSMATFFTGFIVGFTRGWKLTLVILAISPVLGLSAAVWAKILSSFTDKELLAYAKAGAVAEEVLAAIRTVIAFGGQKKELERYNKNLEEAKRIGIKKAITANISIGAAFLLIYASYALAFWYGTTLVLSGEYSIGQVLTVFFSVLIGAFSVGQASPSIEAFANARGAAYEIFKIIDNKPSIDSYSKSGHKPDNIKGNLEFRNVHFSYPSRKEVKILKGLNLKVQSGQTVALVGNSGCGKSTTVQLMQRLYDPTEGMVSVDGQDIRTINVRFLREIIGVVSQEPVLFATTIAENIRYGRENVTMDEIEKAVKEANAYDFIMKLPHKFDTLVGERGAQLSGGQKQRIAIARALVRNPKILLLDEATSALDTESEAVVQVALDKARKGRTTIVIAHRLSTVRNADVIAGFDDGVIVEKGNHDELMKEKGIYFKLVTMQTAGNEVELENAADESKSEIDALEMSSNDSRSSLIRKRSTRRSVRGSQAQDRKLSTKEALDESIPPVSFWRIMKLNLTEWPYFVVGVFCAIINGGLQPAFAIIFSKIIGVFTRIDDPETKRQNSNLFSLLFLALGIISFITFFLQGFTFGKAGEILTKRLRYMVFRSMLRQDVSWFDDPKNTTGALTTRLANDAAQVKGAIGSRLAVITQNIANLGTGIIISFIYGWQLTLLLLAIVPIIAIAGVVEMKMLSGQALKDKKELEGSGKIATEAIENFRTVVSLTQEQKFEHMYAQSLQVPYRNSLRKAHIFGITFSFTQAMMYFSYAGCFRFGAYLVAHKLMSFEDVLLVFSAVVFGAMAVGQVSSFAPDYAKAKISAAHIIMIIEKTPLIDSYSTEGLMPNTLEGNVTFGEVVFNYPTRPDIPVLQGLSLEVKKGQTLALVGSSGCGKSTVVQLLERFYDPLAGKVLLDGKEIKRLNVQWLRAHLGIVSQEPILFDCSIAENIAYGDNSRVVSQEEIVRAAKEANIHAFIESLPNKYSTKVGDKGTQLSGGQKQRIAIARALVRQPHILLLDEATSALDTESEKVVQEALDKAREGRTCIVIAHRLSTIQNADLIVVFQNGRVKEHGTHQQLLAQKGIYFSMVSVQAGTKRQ
Sequence of hCyt P450 (Homo sapiens, UniProt P33261) (P33261 whole entry): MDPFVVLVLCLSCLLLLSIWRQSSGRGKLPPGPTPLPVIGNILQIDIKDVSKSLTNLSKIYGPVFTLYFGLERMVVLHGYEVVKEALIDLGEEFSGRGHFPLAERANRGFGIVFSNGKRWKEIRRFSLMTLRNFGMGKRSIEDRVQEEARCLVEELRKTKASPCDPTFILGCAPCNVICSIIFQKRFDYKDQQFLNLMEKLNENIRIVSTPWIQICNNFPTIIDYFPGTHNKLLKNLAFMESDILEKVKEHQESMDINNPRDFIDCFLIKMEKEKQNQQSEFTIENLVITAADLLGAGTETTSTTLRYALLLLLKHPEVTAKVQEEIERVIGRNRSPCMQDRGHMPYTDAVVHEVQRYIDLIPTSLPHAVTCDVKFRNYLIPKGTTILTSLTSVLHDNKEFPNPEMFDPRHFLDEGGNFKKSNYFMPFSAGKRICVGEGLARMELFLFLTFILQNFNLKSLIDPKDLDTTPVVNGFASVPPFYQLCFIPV

## COCCN[C@H]1CS(=O)(=O)C[C@@H]1S(=O)(=O)c1ccc(Cl)cc1 [Compound D136]
Human PBMC; at high release activation of others cytokines
  IL1b release activation by hPBMC: No IL1b release activation
Human PBMC; human PBMC
  IL-1 inhibition: Selectively inhibits
  IL-17α inhibition: Selectively inhibits
  TNF-α inhibition: Selectively inhibits
[1]
  stability in presence of human liver microsomes: Extremely stable
[2]
  stability in presence of mouse liver microsomes: Extremely stable
hCyt P450 [3]; CYP 3A4-Midazolam
  CYP inhibition conclusion: no inhi-
  IC50: > 10 µM
hCyt P450 [3]; CYP 3A4-Testosterone
  CYP inhibition conclusion: no inhi-
  IC50: > 10 µM
hCyt P450 [4]
  CYP inhibition conclusion: no inhi-
  IC50: > 10 µM
hCyt P450 [5]
  CYP inhibition conclusion: no inhi-
  IC50: > 10 µM
hCyt P450 [6]
  CYP inhibition conclusion: no inhi-
  IC50: > 10 µM
PPB; Human
  %, Bound: 51.6%
  %, Free (50% pI): 65.3%
  %, Free (recalc from 50% pI): 48.4%
  Permeability, %: 94%
PPB; Rat
  %, Bound: 52.0%
  %, Free (50% pI): 64.9%
  %, Free (recalc from 50% pI): 48.0%
  Permeability, %: 94%
PPB; human
  recovery: 56.9%
PPB; rat
  recovery: 122%
PK in rat plasma; [8]
  K el: 0.75 h⁻¹
  T_½: 55.8 min
PK in rat plasma; Table 37, IV plasma, 1.13 mg/kg
  AUV last: 239
PK in rat plasma; Table 37, PO plasma, 7.53 mg/kg
  AUV last: 197
PK in rat plasma; Table 37, from AUCinf
  Fabs, %: 12.9%
PK in rat plasma; Table 37, from AUV last
  Fabs, %: 12.3%
PK in rat plasma; [9]
  Cl/F: 80.23 mL/min/kg
  K el: 2.11 h⁻¹
  T_½: 19.8 min
PK in rat plasma; plasma, po, PK in mouse and dog, species of the value not stated, read-out: orally bioavailable (absorbance)
  bioavailability: ~33%
PK in rat plasma; [10]
  AUC(0-inf): 208 ng·h/mL
  AUC(0-t): 197 ng·h/mL
  CL/F: 866 mL/min/kg
  Cmax: 165 ng/mL
  MRT inf: 79.8 min
  MRT last: 67.8 min
  Tmax: 30 min
PK in rat plasma; rat, Table 36, PO plasma, 7.53 mg/kg, read-out: Vz/F
  Vd/F: 66.3 L/kg
PK in rat plasma; rat, Table 37, IV plasma, 1.13 mg/kg
  AUC(0-inf): 242 ng·h/mL
PK in rat plasma; [11]
  AUC(0-t): 239 ng·h/mL
  Cmax: 524 ng/mL
  MRT inf: 22.2 min
  MRT last: 21 min
  Tmax: 4.98 min
[7]; Caco-2, Mean
  Papp A→B: 34.2 ×10⁻⁶ cm/s
  Papp B→A: 51.1 ×10⁻⁶ cm/s
[7]; Caco-2, individual replicates
  Papp A→B: 33.6 ×10⁻⁶ cm/s
  Papp B→A: 47.9 ×10⁻⁶ cm/s
Caco-2
  Caco-2 permeability: highly permeable
Caco-2; individual replicates
  Papp A-B: 36.0 10^−6 cm/s and 33.1 10^−6 cm/s
  Papp B-A: 54.6 10^−6 cm/s and 50.9 10^−6 cm/s
P-gp (MDR1); Caco-2 asymmetry
  substrate for P-gp (MDR1): not a substrate
P-gp (MDR1); human, Caco-2, Mean Papp B-A / A-B, read-out: Asymmetry Index
  efflux ratio: 1.5
